According to US20240309004A1, “SELECTIVE CYCLIN-DEPENDENT KINASE INHIBITORS AND METHODS OF THERAPEUTIC USE THEREOF” (ViroKyne Therapeutics, LLC, priority 2021, published 2024):
pEC50, pIC50: −log10 of the molar value. Like-named read-outs stand apart in the source and are kept apart here. Values belong to the compound of their own block, whether it stands above or below them.

Experiments:
[1] = Cytotoxicity concurrent with VZV Ellen primary assay; assay type: cell-based; conditions: human
Method: (§1) Assays were performed in monolayers as described. […] Toxicity was measured using CTG as above. […] Toxicity was measured using CTG as above.

[2] = tested on: Adenovirus Adenoid75 strain; experiment: Adenovirus primary assay, Adenoid75 strain, HFF cells; assay type: cell-based; conditions: unidentified adenovirus; for EC90: read-out: EC90
[3] = Cytotoxicity concurrent with Adenovirus secondary assay; assay type: cell-based; conditions: human, Adeno secondary assay, HFF cells
Method: (§2) Monolayers of HFF cells were prepared in 96-well plates and incubated at 37° C. for 1 d to allow the cells to reach confluency. Media was then aspirated from the wells and cells infected at a high MOI. At 1 h following infection, the inocula were removed and the monolayers rinsed with fresh media. […] Drug dilutions were added to the wells and the plates were incubated for various times, depending on the virus used and represents a single replication cycle for the virus. A duplicate set of dilutions were also performed but remained uninfected to serve as a cytotoxicity control and received equal compound exposure. Supernatants from each of the infected wells were subsequently titered using CTG in a TCID50 assay to quantify the progeny virus. For HCMV only, viral yield in the supernatants from the infected cells were titered using qPCR with HCMV primers [NT], and probe [NT].

[4] = Cytotoxicity concurrent with HSV1 E-377 primary assay; assay type: cell-based; conditions: human
Method: as §1

HSV2 strain G = experiment: HSV2 primary assay, strain G, HFF cells; assay type: cell-based, herpes simplex virus 2
Method: as §1
(§3) Monolayers of HFF cells were prepared in six-well plates and incubated at 37° C. for 2 d to allow the cells to reach confluency. Media was then aspirated from the wells and 0.2 mL of virus-containing solution was added to each of three wells to yield 20-30 plaques in each well. The virus was allowed to adsorb to the cells for 1 h and the plates were agitated every 15 minutes. Compounds were diluted in assay media consisting of MEM with Earl's salts supplemented with 2% FBS, glutamine, penicillin, and gentamycin. Diluted drug was added to duplicate wells and the plates were incubated for various times, depending on the virus used. For HSV-1 and -2, the monolayers were then stained with 1% crystal violet in 20% methanol and the unbound dye removed by washing with dH20. For all other assays, the cell monolayer was stained with 1% Neutral Red solution for 4-6 h then the stain was aspirated and the cells were washed with PBS.

HSV1 strain E-377 = experiment: HSV1 primary assay, strain E-377, HFF cells; assay type: cell-based, Herpes Simplex Virus 1
Method: as §1, §3

VZV strain Ellen = experiment: VZV primary assay, strain Ellen, HFF cells; assay type: cell-based, Varicella Zoster Virus
Method: as §1, §3

[5] = Cytotoxicity concurrent with Adenovirus primary assay; assay type: cell-based; conditions: human
[6] = tested on: Adenovirus Adenoid75 strain; experiment: Adenovirus secondary assay (yield reduction), Adenoid75 strain, HFF cells; assay type: cell-based; conditions: unidentified adenovirus
Method: as §2

[7] = Cytotoxicity concurrent with HCMV AD169 primary assay; assay type: cell-based, human; conditions: human
[8] = Cytotoxicity concurrent with HSV2 primary assay; assay type: cell-based; conditions: human
Method: as §1

[9] = tested on: Epstein-Barr virus Akata strain; experiment: Epstein-Barr primary assay, Akata strain, Akata cells; assay type: cell-based
HCMV strain AD169 = experiment: HCMV primary assay (CPE), strain AD169, HFF cells; assay type: cell-based, Human Cytomegalovirus
Method: The antiviral activity of the compound against HCMV in the described Primary assay was measured by treating primary Human foreskin fibroblast (HFF) cells infected with HCMV with a range of compound concentrations—description of methods for this assay can be found in section 1.3.2.1. […] . Additional tested assay parameters in this Primary assay can be found in Table 3.2.1 and include EC90, S150, and S190 values—descriptions of those data points can be found in section 3.2.1.

[10] = Cytotoxicity concurrent with EBV primary assay; conditions: human
Murine CMV strain Smith = experiment: Murine CMV secondary assay, strain Smith, MEF cells; assay type: cell-based, Mouse Cytomegalovirus
Method: (§4) Compounds that were positive in the CPE assay were confirmed in a similar assay in 96-well plates according to established laboratory protocols with the compounds added 1 h post infection […]. Additionally, 12 1:3 dilutions were done instead of 6 1:5 dilutions for added accuracy. Genome copy number was determined by qPCR using primers 5′-[…]-3′, 5′ […]-3′, and probe 5′-[…]-3′.

HFF cells = experiment: Cytotoxicity concurrent with HCMV AD169 primary assay; assay type: cell-based, human
[11] = tested on: HCMV strain GDGr K17 - resistant isolate; experiment: HCMV primary assay, resistant isolate GDGr K17, HFF cells; assay type: cell-based, Human Cytomegalovirus; conditions: Human betaherpesvirus 5, HFF
Method: as §1

MEF cells = experiment: Cytotoxicity concurrent with Murine CMV secondary assay; assay type: cell-based, mouse
Method: as §4

[12] = tested on: VZV strain 15-6-001 resistant isolate; experiment: microbe, parasite or virus in culture; assay type: cell-based, Varicella Zoster Virus; conditions: Human alphaherpesvirus 3, HFF
Method: as §1, §3

[13] = Cytotoxicity concurrent with VZV 15-6-001 primary assay; assay type: cell-based; conditions: human, HFF cell line
Method: as §1

[14] = Metabolic stability in mice liver microsomes; conditions: mouse, microsomes, 1 h
Method: Potassium phosphate buffer (Kphos) was prepared by adding 0.647 g potassium phosphate monobasic (KH2PO4) and 3.527 g potassium phosphate dibasic (K2HPO4) to 400 mL of Milli-Q water. pH of the buffer was adjusted to 7.4 and volume was made up to 500 mL.
Stock solutions of the test compounds were prepared in DMSO at a concentration of 1 mM.
To this microsomal mix 1.42 μL (1 mM) of test compound and positive control were spiked, from this mix 70 μL was transferred to 96 well plate and pre-incubated at 37° C. for 5 min. […] The plates were centrifuged at 4000 RPM for 15 min and 100 μL aliquots were submitted for analysis by LC-MS/MS.
Samples were monitored for parent compound disappearance in MRM mode using LC-MS/MS. The LC-MS/MS conditions and MRM chromatogram will be provided as per client request.
The peak area ratios of analyte versus internal standard were used to calculate the % remaining at the end of 60 minutes in presence NADPH.

CDK9/cyclin T1 = CDK9/cyclin T1 (Homo sapiens (Human), UniProt P50750); experiment: Kinase activity assay, CDK9/cyclin T1; assay type: biochemical; conditions: Table 3.1.1; 10 μM ATP; 10-dose duplicate, 3-fold serial dilution starting at 10 μM; read-out: Compound IC50 CDK9/cyclin T1
[15] = Adenovirus primary assay, HFF cells, Adenoid75 strain, read-out: EC50
[16] = Adenovirus primary assay, HFF cells, Adenoid75 strain
[17] = Human alphaherpesvirus 2, HSV2 primary assay, strain G, HFF cells, read-out: EC50
[18] = Human alphaherpesvirus 2, HSV2 primary assay, strain G, HFF cells, read-out: EC90
[19] = Human alphaherpesvirus 1, HSV1 primary assay, strain E-377, HFF cells, read-out: EC50
[20] = Human alphaherpesvirus 1, HSV1 primary assay, strain E-377, HFF cells, read-out: EC90
[21] = Human alphaherpesvirus 3, VZV primary assay, strain Ellen, cell line HFF, read-out: EC50
[22] = Human alphaherpesvirus 3, VZV primary assay, strain Ellen, cell line HFF, read-out: EC90
[23] = human gammaherpesvirus 4, Akata
[24] = Human betaherpesvirus 5, AD169, HFF

Sequence of CDK9/cyclin T1 (P50750 whole entry): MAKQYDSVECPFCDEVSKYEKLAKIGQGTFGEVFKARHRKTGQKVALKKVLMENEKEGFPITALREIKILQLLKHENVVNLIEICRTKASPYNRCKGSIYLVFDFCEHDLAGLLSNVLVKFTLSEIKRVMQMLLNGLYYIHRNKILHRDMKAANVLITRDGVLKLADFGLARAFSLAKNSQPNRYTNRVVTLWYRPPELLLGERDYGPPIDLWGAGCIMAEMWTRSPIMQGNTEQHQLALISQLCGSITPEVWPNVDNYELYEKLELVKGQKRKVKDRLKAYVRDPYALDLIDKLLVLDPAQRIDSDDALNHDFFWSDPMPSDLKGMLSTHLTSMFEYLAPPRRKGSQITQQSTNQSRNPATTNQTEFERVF
Sequence of CDK9/cyclin T1 (O60563 whole entry partner): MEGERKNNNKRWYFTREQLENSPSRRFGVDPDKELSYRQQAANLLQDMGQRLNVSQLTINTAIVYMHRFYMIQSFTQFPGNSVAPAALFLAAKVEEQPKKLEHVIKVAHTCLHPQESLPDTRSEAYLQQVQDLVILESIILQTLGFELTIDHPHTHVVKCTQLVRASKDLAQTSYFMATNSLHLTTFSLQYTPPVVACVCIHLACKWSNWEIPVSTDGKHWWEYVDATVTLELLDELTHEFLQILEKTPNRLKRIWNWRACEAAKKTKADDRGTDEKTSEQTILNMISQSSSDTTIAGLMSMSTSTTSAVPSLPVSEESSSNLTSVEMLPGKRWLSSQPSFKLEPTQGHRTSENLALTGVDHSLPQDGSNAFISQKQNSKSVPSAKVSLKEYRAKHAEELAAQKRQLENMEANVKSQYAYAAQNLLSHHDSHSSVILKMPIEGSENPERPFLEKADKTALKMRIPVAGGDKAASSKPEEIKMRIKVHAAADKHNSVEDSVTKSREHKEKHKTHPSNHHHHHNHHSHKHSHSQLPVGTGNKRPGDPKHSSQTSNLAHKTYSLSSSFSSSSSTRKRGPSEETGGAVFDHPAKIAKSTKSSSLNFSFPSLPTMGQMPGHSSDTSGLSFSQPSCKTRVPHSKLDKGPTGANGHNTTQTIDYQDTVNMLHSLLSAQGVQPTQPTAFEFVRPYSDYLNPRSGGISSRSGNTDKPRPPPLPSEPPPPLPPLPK

SMILES: O=S1(=O)CCC(Nc2cc3c4ccc(F)cc4nn3cn2)CC1 [VKT-018]
CC50 [1]: 50 µM
pEC50 [2, 15]: 5.43
EC90 [2, 16]: 50 µM
CC50 ([3]; uninfected HFF cell monolayers): 97.1 µM
CC50 [4]: 50 µM
pEC50 (HSV2 strain G; [17]): 4.30
EC90 (HSV2 strain G; [18]): 50 µM
pEC50 (HSV1 strain E-377; [19]): 4.30
EC90 (HSV1 strain E-377; [20]): 50 µM
pEC50 (VZV strain Ellen; [21]): 4.30
EC90 (VZV strain Ellen; [22]): 50 µM
CC50 [5]: 50 µM
EC90 ([6]; Adeno secondary assay, strain Adenoid75, HFF cells, read-out: EC90): 16.4 µM
CC50 ([7]; CC50): 50 µM
CC50 [8]: 50 µM
pEC50 ([9]; human gammaherpesvirus 4, Epstein-Barr primary assay, Akata strain, Akata cells, read-out: EC50): 4.34
EC90 ([9]; human gammaherpesvirus 4, Epstein-Barr primary assay, Akata strain, Akata cells, read-out: EC90): 50 µM
pEC50 (HCMV strain AD169; Human betaherpesvirus 5, HCMV primary assay, virus strain AD169, HFF cells, read-out: EC50): 4.30
EC90 (HCMV strain AD169; Human betaherpesvirus 5, HCMV primary assay, virus strain AD169, HFF cells, read-out: EC90): 50 µM
CC50 at 72 h ([10]; Akata cells without virus induction): 50 µM

SMILES: NC(=O)CN1CCC(Nc2cc3c4ccc(F)cc4nn3cn2)CC1 [VKT-026]
CC50 [1]: 22 µM
pEC50 [2, 15]: 5.11
EC90 [2, 16]: 50 µM
pEC50 (Murine CMV strain Smith): 6.77
EC90 (Murine CMV strain Smith): 5.38 µM
CC50 [4]: 10 µM
pEC50 (HSV2 strain G; [17]): 5.00
EC90 (HSV2 strain G; [18]): 50 µM
pEC50 (HSV1 strain E-377; [19]): 5.00
EC90 (HSV1 strain E-377; [20]): 10 µM
pEC50 (VZV strain Ellen; [21]): 5.00
EC90 (VZV strain Ellen; [22]): 10 µM
CC50 [5]: 24.7 µM
CC50 (HFF cells; human): 26.9 µM
CC50 [8]: 29.4 µM
pEC50 [11]: 6.06
EC90 [11]: 10 µM
CC50 (MEF cells): 50 μ.M

SMILES: OCC1CCC(Nc2cc3c4ccc(F)cc4nn3cn2)CC1 (centres unmarked) [VKT-029]
CC50 ([1]; VZV Ellen primary assay, cell line HFF, read-out: CC50): 45.1 µM
pEC50 ([2]; HFF): 5.29
pEC50 [12]: 5.00
EC90 [12]: 10 µM
CC50 [13]: 47.2 µM
CC50 [3]: 100 µM
CC50 ([4]; HSV1 E-377 primary assay, HFF cells, read-out: CC50): 50 µM
pEC50 (HSV2 strain G; Human alphaherpesvirus 2, HFF): 4.30
EC90 (HSV2 strain G; Human alphaherpesvirus 2, HFF): 50 µM
pEC50 (HSV1 strain E-377; Human alphaherpesvirus 1, HFF): 4.30
EC90 (HSV1 strain E-377; Human alphaherpesvirus 1, HFF): 50 µM
pEC50 (VZV strain Ellen; Human alphaherpesvirus 3, HFF): 5.40
EC90 (VZV strain Ellen; Human alphaherpesvirus 3, HFF): 10 µM
CC50 ([5]; Adenovirus primary assay, HFF cells, read-out: CC50): 50 µM
EC90 ([6]; HFF): 3.91 µM
CC50 ([7]; HCMV primary assay, HFF cells, read-out: CC50): 50 µM
CC50 ([8]; HSV2 primary assay, HFF cells, read-out: CC50): 50 µM
pEC50 [9, 23]: 5.32
EC90 [9, 23]: 12.1 µM
pEC50 (HCMV strain AD169; [24]): 4.30
EC90 (HCMV strain AD169; [24]): 50 µM
CC50 at 72 h [10]: 50 µM

% Remaining at 60 min [14]: 107%
pEC50 (HCMV strain AD169; HCMV primary assay, virus strain AD169, HFF cells, read-out: EC50): 5.70
EC90 (HCMV strain AD169; HCMV primary assay, virus strain AD169, HFF cells, read-out: EC90): 2 µM
pIC50 (CDK9/cyclin T1): 7.33
SMILES: N[C@H]1CC[C@H](Nc2cc3c4ccc(F)cc4nn3cn2)CC1 [VKT-511, (1r,4r)-N1-(7-fluoropyrimido[1,6-b]indazol-3-yl)cyclohexane-1,4-diamine]
CC50 (HFF cells): 6.98 µM
